The source of these data is patent US5716971A, “Pyridine derivatives, their production and use” (Takeda Chemical Industries, Ltd., priority 1993, dated 1998).

Like-named read-outs stand apart in the source and are kept apart here.

Assay [1] has as its system Spontaneously hypertensive rats. The assay can be described thus: Hypotensive activity in rats (Tail Cuff Method), oral. Conditions: Rattus norvegicus, SHR. It is filed as in vivo. As to the method: Hypotensive activity in rats (Tail Cuff Method)
Spontaneously hypertensive rats (SHR, male, 20 to 23 week old) were warmed up to 36° C. The blood pressure at the tail aorta was measured by the tail cuff method. The blood pressure was measured three times, i.e. before oral administration of the test compound, two hours after the administration and five hours after the administration. The test compound was orally administered in the state of a suspension in gum arabic.
Maximal, hypotensive effect against the blood pressure before the administration is shown as % pre. in Table 66. As a result, it is apparent that the compounds of this invention show hypotensive activity.

The test system of assay [2] is specimen of rat aorta. The assay can be described thus: Vasorelaxation activity in a specimen of rat aorta: contraction caused by KCl. Conditions: read-out: constriction inhibitory ratio. As to the method:
(§1) Male Wister rats (10 to 13 week old were employed for the experiment. After dehematization, the aorta was excised and a ring specimen (5 mm length) was prepared. The specimen was suspended in a bath filled with oxygenated (95% O2 -5%CO2) Krebs solution (36° C.). The ring specimen was fixed at one end and the other end was connected to a transducer (Nippon Koden) for recording tension to determine the tension. After a stabilization period of one hour, TEA (30-45 mM) and BaCl2 (0.3 mM) were added to the bath to cause vasoconstriction. After the constriction had reached a steady state (after about 15 minutes), a test compound was added to the bath and its relaxation activity was measured.
Vasorelaxation activity in a specimen of rat aorta Effects on contraction caused by potassium chloride (KCl)
The same experiment was conducted as in Experiment 1, excepting the use of KCl ([…]) instead of TEA and BaCl2

Assay [3] deals with anesthetized dogs. The assay can be described thus: Action of increasing coronary blood flow in anesthetized dogs (administration into coronary artery). The assay is classed as in vivo, dog. Conditions: injected into coronary artery, 30 ug/day, anesthetized Beagle dogs. As to the method: Action of increasing coronary blood flow in anesthetized dogs (Administration into coronary artery) Method: Beagle dogs (10 to 12 kg body weight) were anesthetized with pentobarbital and subjected to thoractomy under artificial respiration. A by-pass fitted with an electromagnetic flowmeter (Nippon Koden) was prepared between the left coronary artery and left carotid artery,and the volume of coronary blood flow was measured. […]
Maximal change rate against the value measured before the administration (% of basal flow) and the duration period [shown in terms of the time (T1/2) in which the activity is reduced to half] are shown in Table 67. As a result, it is apparent that the compounds of this invention show action of increasing coronary blood flow.

Assay [4] concerns specimen of rat aorta. The assay can be described thus: Vasorelaxation activity in a specimen of rat aorta: contraction caused by TEA and BaCl2. Conditions: TEA (30-45 mM) and BaCl2 (0.3 mM) contraction, read-out: constriction inhibitory ratio. As to the method:
Vasorelaxation activity in a specimen of rat aorta Effects on contraction caused by tetraethylammonium chloride (TEA) and barium chloride (BaCl2)
as §1

[5] abbreviates: after 2 hours, read-out: Maximal hypotensive effect against blood pressure before administration (% pre.), after 2 hours.
The mark [6] stands for this setting: after 5 hours, read-out: Maximal hypotensive effect against blood pressure before administration (% pre.), after 5 hours.

As to `Cc1cc(O)c(/C(=N/OC(C)(C)C)c2c(O)ccc[n+]2[O-])cc1Br` [Compound 67, (Z)-2-(5-bromo-2-hydroxy-4-methylbenzoyl)-3-hydroxypyridine N-oxide O-t-butyloxime], the inhibition in vivo at 10 mg/kg in assay [1] (setting [5]) stood at 28%. Also, the inhibition in vivo at 10 mg/kg in assay [1] (setting [6]) came out at 35%. For the same molecule, in assay [2], the inhibition at 1 µM is 0%, the inhibition at 3 µM worked out at 0% and the inhibition at 10 µM was found to be 0%. For the same molecule, in assay [3], the “duration (T1/2): time in which the activity is reduced to half” value is 8.9 min. Further, in assay [4], the inhibition at 1 µM is 32%, the inhibition at 3 µM turned out to be 89% and the inhibition at 10 µM was 100%.

For `CC(C)(C)O/N=C(/c1cc(Br)c(Cl)cc1O)c1cccc[n+]1[O-]` [Compound 101, (Z)-2-(5-bromo-4-chloro-2-hydroxybenzoyl)pyridine N-oxide O-t-butyloxime], the inhibition in vivo at 3 mg/kg in assay [1] (setting [5]) worked out at 10%; in assay [1] (setting [6]), 11%. Further, the inhibition at 1 µM in assay [2] worked out at 3%; in assay [4], 71%. Moreover, the inhibition at 3 µM in assay [2] amounted to 25%; in assay [4], 65%. In assay [3], the “duration (T1/2): time in which the activity is reduced to half” value is listed as 7.9 min.

With `CC(C)(C)O/N=C(/c1cc(Cl)c(Cl)cc1O)c1ncccc1O` [Compound 32, (Z)-2-(4,5-dichloro-2-hydroxybenzoyl)-3-hydroxypyridine O-t-butyloxime], the inhibition in vivo at 10 mg/kg in assay [1] (setting [5]) is 19%; in assay [1] (setting [6]), 18%. Besides, the inhibition at 1 µM in assay [2] was -2%; in assay [4] it was 87%. For the same molecule, the figures for the inhibition at 3 µM in assay [2] and in assay [4] were 11% and 100%, respectively. The “duration (T1/2): time in which the activity is reduced to half” value in assay [3] amounted to 3.0 min.

As to `CC(C)(C)O/N=C(/c1cc(Br)ccc1O)c1c(O)ccc[n+]1[O-]` [Compound 63, (Z)-2-(5-bromo-2-hydroxybenzoyl)-3-hydroxypyridine N-oxide O-t-butyloxime], the inhibition in vivo at 10 mg/kg in assay [1] (setting [5]) amounted to 42%. The inhibition in vivo at 10 mg/kg in assay [1] (setting [6]) came to 54%. Also, in assay [2], the inhibition at 1 µM was 0%, the inhibition at 3 µM was 0% and the inhibition at 10 µM was 0%. Also, the “duration (T1/2): time in which the activity is reduced to half” value in assay [3] is 2.4 min. Besides, in assay [4], the inhibition at 1 µM turned out to be 13%, the inhibition at 3 µM is 61% and the inhibition at 10 µM is 100%.

For the molecule `CC(C)(C)O/N=C(/c1cc(Cl)c(F)cc1O)c1c(O)ccc[n+]1[O-]` [Compound 58, (Z)-2-(5-chloro-4-fluoro-2-hydroxybenzoyl)-3-hydroxypyridine N-oxide O-t-butyloxime], in assay [1] (setting [5]), the inhibition in vivo at 1 mg/kg worked out at 35% and the inhibition in vivo at 10 mg/kg was 55%. In assay [1] (setting [6]), the inhibition in vivo at 1 mg/kg amounted to 19% and the inhibition in vivo at 10 mg/kg came out at 45%. For the same molecule, in assay [2], the inhibition at 1 µM is 0% and the inhibition at 3 µM is 0%. For the same molecule, the “duration (T1/2): time in which the activity is reduced to half” value in assay [3] was 47.7 min. Besides, in assay [4], the inhibition at 1 µM came to 84% and the inhibition at 3 µM was determined as 94%.

For `CC(C)(C)O/N=C(/c1cc(F)c(F)cc1O)c1ncccc1O` [Compound 34, (Z)-2-(4,5-difluoro-2-hydroxybenzoyl)-3-hydroxypyridine O-t-butyloxime], the inhibition in vivo at 10 mg/kg was found to be 27% in assay [1] (setting [5]) and 10% in assay [1] (setting [6]). The figures for the inhibition at 1 µM in assay [2] and in assay [4] were 4% and 54%, respectively. The inhibition at 3 µM was determined as 18% in assay [2] and 59% in assay [4]. In addition, the “duration (T1/2): time in which the activity is reduced to half” value in assay [3] is 3.7 min.

Regarding `CC(C)(C)O/N=C(/c1cc(Br)c(Cl)cc1O)c1ncccc1O` [Compound 38, (Z)-2-(5-bromo-4-chloro-2-hydroxybenzoyl)-3-hydroxypyridine O-t-butyloxime], the inhibition in vivo at 10 mg/kg in assay [1] (setting [5]) was 29%; in assay [1] (setting [6]), 13%. Besides, the inhibition at 1 µM in assay [2] was 0%; in assay [4], 92%. Also, the inhibition at 3 µM in assay [2] came out at 1%; in assay [4], 100%. Besides, the “duration (T1/2): time in which the activity is reduced to half” value in assay [3] worked out at 4.7 min.

Consider `CC(C)(C)C/N=C(/c1cc(Br)ccc1O)c1cccc[n+]1[O-]` [Compound 105, (Z)-2-[(5-bromo-2-hydroxy)-α-neopentyliminobenzyl]pyridine N-oxide], for which the inhibition in vivo at 30 mg/kg in assay [1] (setting [5]) came out at 59%; in assay [1] (setting [6]), 44%. In addition, the values for the inhibition at 1 µM in assay [2] and in assay [4] were 4% and 46%, respectively. In addition, the inhibition at 3 µM in assay [2] came out at 28%; in assay [4], 87%. Further, in assay [3], the “duration (T1/2): time in which the activity is reduced to half” value is listed as 2.9 min.

For the molecule `CC(C)(C)O/N=C(/c1cc(Cl)c(F)cc1O)c1ncccc1O` [Compound 36, (Z)-2-(5-chloro-4-fluoro-2-hydroxybenzoyl)-3-hydroxypyridine O-t-butyloxime], the figures for the inhibition in vivo at 10 mg/kg in assay [1] (setting [5]) and in assay [1] (setting [6]) were 42% and 30%, respectively. The values for the inhibition at 1 µM in assay [2] and in assay [4] were 0% and 81%, respectively. Further, the inhibition at 3 µM turned out to be 4% in assay [2] and 80% in assay [4]. Further, the “duration (T1/2): time in which the activity is reduced to half” value in assay [3] is on record as 4.8 min.
